Counter-ions that a name gives are not always drawn.
Legend:
5-HT3 receptor [1] = molecular target: T1, 5-HT3 receptor (Rattus norvegicus, UniProt P35563); assay: 5-HT3 receptor-binding assay using [3H]GR65630 (rat cerebral cortex synaptic membrane); parameters: A crude specimen of synaptic membrane was prepared from the cerebral cortex of rat; from tissue; host or cells: rat cerebral cortex, crude synaptic membrane; details: [3H]GR65630 0.2-0.3 nM, 50 mM HEPES with Triton X-100, 30 minutes at 23° C., nonspecific: 100 μM metoclopramide
T1 sequence (P35563 24-483): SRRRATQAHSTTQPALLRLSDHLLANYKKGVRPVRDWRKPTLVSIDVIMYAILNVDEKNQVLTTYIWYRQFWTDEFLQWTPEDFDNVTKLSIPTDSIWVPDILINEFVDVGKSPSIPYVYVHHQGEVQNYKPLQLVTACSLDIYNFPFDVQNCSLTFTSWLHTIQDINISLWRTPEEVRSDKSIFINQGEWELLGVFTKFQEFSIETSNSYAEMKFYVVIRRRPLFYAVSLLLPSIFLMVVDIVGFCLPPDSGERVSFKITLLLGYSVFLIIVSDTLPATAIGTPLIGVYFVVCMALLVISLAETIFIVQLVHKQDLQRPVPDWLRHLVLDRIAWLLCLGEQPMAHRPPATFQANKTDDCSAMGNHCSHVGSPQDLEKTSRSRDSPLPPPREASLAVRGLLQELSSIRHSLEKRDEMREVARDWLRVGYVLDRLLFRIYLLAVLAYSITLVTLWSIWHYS
Excerpt: (§1) The compound of the present invention has an antagonistic action to 5-HT receptor, in particular, to 5-HT3 receptor. Affinity of the compound of the present invention to 5-HT3 receptor is shown by a receptor-binding assay [refer to Gavin J. Kilpatrick et al, Eur. J. Pharmacol., 159, 157 (1989)] using [^3 H]GR65630 for a tracer legend. Moreover, the antagonistic action to 5-HT3 receptor is shown through inhibition of von Bezold Jarisch reflex caused by intravenously administering 5-HT to rat.
The specific 5-HT3 receptor-binding assay was performed according to the method by G. J. Kilpatrick et al. using [^3 H] GR 65630 as a tracer ligand.
A crude specimen of synaptic membrane was prepared from the cerebral cortex of rat and used for experiment by suspending it into 50 mM IIEPES buffer (pl 7.4) added with Triton X-100.
Next, testing compounds of several kinds of concentration and tritium-labelled GR 65630 (final concentration 0.2-0.3 nM) were added to the suspension of membrane and allowed to react for 30 minutes at 23° C. After the reaction, the reaction mixture was filtered under suction and the filter was washed with 50 mM HEPES buffer. Then, the radioactivity left behind on the filter was determined with a liquid scintillation counter.
The nonspecific binding was determined in the presence of 100 μM metoclopramide.
Then, 50% inhibitory concentration (IC50) of the compounds of Examples 10 through 12 was determined graphically (Table 1).

5-HT3 receptor [2] = molecular target: T1, 5-HT3 receptor; assay: Antagonistic action on von Bezold Jarisch reflex; type: in vivo; parameters: Under the anesthetization of rat with urethane/chloralose; from tissue; host or cells: whole anaesthetized rat (in vivo); receptor endogenous, by own knowledge on vagal afferents; details: urethane/chloralose-anesthetized rat, 5-HT 1 mg/kg intravenous; dose of test compound not given
Excerpt: as §1
The antagonistic action of testing compounds to 5-HT3 was assayed according to the method described in Naunyn-Schmiedeberg's Arch. Pharmacol., vol. 326, 36 (1984).
Under the anesthetization of rat with urethane/chloralose, the blood pressure was monitored with hemodynamometer frown carotid arteries and the heart rate was monitored from electrocardiogram.

| IC50 (5-HT3 receptor [1]) [nM] | inhibition of reflex bradycardia caused by intravenous 5-HT (von Bezold Jarisch reflex) (5-HT3 receptor [2]) | Structure (SMILES) |
| --- | --- | --- |
| 3 | – | CN(C)C1CCN(C(=O)c2nn(C)c3ccccc23)C1 (centres unmarked) [Example 11, 3-Dimethylamino-(1-methylindazol-3-ylcarbonyl)pyrrolidine hydrochloride] |
| 1 | inhibited the reflex bradycardia | CCN(C)[C@@H]1CN(C(=O)c2nn(C)c3ccccc23)C[C@@H]1C (relative stereo) [Example 10, Cis-3-(N-ethyl-N-methyl)amino-4-methyl-1-(1-methylind-azol-3-ylcarbonyl)pyrrolidine hydrochloride] |
| 2 | inhibited the reflex bradycardia | CCN(C)[C@@H]1CN(C(=O)c2cn(C)c3ccccc23)C[C@@H]1C (relative stereo) [Example 12, Cis-3-(N-ethyl-N-methyl)amino-4-methyl-1-(1-methylindol-3-ylcarbonyl)pyrrolidine hydrochloride] |
